Legend:
[1] = Drug localization in nucleus of human SW480 cells at 1 uM after 2 hrs by DAPI-fluoresecence based confocal laser microscopy; assay type: ADME, subcellular; conditions: sw480, 2 h
[2] = Drug uptake in tumor of nude BALB/c mouse xenografted with human LS180 cells assessed as increase in mean fluorescence intensity at 1 mg/kg, iv measured at 0.25 to 72 hrs post administration by fluorescence-based imaging analysis; assay type: ADME, organism-based, Neoplasm; conditions: in vivo
[3] = Drug localization in nucleus of human LS180 cells at 1 uM after 2 hrs by DAPI-fluoresecence based confocal laser microscopy; assay type: ADME, subcellular; conditions: ls180, 2 h
[4] = Drug uptake in liver of nude BALB/c mouse xenografted with human LS180 cells at 1 mg/kg, iv measured at 3 days post administration by DAPI-based confocal laser microscopic analysis; assay type: ADME, organism-based; conditions: in vivo, 72 h
[5] = Drug uptake in human SW480 cells after 24 hrs by fluorospectrometry; assay type: ADME, cell-based; conditions: sw480, 24 h
[6] = Drug uptake in tumor of human SW480 cells xenografted in nude BALB/c mouse assessed as increase in mean fluorescence intensity at 1 mg/kg, iv measured at 0.25 to 72 hrs post administration by fluorescence-based imaging analysis; assay type: ADME, organism-based, Neoplasm; conditions: in vivo
[7] = Drug uptake in tumor of nude BALB/c mouse xenografted with human LS180 cells at 1 mg/kg, iv measured at 9 days post administration by DAPI-based confocal laser microscopic analysis; assay type: ADME, organism-based, Neoplasm; conditions: in vivo, 216 h
[8] = Drug uptake in tumor of nude BALB/c mouse xenografted with human LS180 cells assessed as increase in mean fluorescence intensity at 1 mg/kg, iv measured at 3 to 72 hrs post administration by fluorescence-based imaging analysis; assay type: ADME, organism-based, Neoplasm; conditions: in vivo
[9] = Drug uptake in tumor of nude BALB/c mouse xenografted with human LS180 cells at 1 mg/kg, iv measured at 48 hrs post administration by fluorescence-based imaging analysis; assay type: ADME, organism-based, Neoplasm; conditions: in vivo
[10] = Drug uptake in nude BALB/c mouse body cavity xenografted with human LS180 cells assessed as increase in mean fluorescence intensity at 1 mg/kg, iv measured at 1 hr post administration by fluorescence-based imaging analysis; assay type: ADME, organism-based; conditions: in vivo
[11] = Retention time of the compound by reverse-phase HPLC method; assay type: physicochemical
[12] = Drug uptake in human SW480 cells xenografted in nude BALB/c mouse at 1 mg/kg, iv measured after 9 days post administration by fluorescence-based imaging analysis; assay type: ADME, organism-based, Neoplasm; conditions: in vivo, 216 h
[13] = Drug uptake in tumor of nude BALB/c mouse xenografted with human LS180 cells at 1 mg/kg, iv measured at 3 days post administration by DAPI-based confocal laser microscopic analysis; assay type: ADME, organism-based, Neoplasm; conditions: in vivo, 72 h
[14] = Drug uptake in heart of nude BALB/c mouse xenografted with human LS180 cells at 1 mg/kg, iv measured at 3 to 9 days post administration by DAPI-based confocal laser microscopic analysis; assay type: ADME, organism-based; conditions: in vivo
[15] = Drug uptake in tumor of nude BALB/c mouse xenografted with human LS180 cells at 1 mg/kg, iv measured after 9 days post administration by fluorescence-based imaging analysis; assay type: ADME, organism-based, Neoplasm; conditions: in vivo, 216 h
[16] = Drug uptake in spleen of nude BALB/c mouse xenografted with human LS180 cells at 1 mg/kg, iv measured at 3 to 9 days post administration by DAPI-based confocal laser microscopic analysis; assay type: ADME, organism-based; conditions: in vivo
[17] = Octanol water partition coefficient, log P of the compound by reverse-phase HPLC method; assay type: physicochemical
[18] = Drug uptake in human LS180 cells up to 1 uM in presence of 4 degC temperature for 2 hrs by fluorospectrometry; assay type: ADME, cell-based; conditions: ls180, 2 h
[19] = Drug uptake in tumor of nude BALB/c mouse xenografted with human LS180 cells at 1 mg/kg, iv measured at 2 hrs post administration by fluorescence-based imaging analysis; assay type: ADME, organism-based, Neoplasm; conditions: in vivo
[20] = Drug uptake in human LS180 cells after 24 hrs by fluorospectrometry; assay type: ADME, cell-based; conditions: ls180, 24 h
[21] = Drug uptake in tumor of nude BALB/c mouse xenografted with human SW480 cells at 1 mg/kg, iv measured up to 22 days post administration by fluorescence-based imaging analysis; assay type: ADME, organism-based, Neoplasm; conditions: in vivo, 528 h
[22] = Drug uptake in lungs of nude BALB/c mouse xenografted with human LS180 cells at 1 mg/kg, iv measured at 3 to 9 days post administration by DAPI-based confocal laser microscopic analysis; assay type: ADME, organism-based, Lung; conditions: in vivo
[23] = Drug uptake in kidneys of nude BALB/c mouse xenografted with human LS180 cells at 1 mg/kg, iv measured at 3 days post administration by DAPI-based confocal laser microscopic analysis; assay type: ADME, organism-based, Kidney; conditions: in vivo, 72 h
[24] = Drug uptake in nude BALB/c mouse body cavity xenografted with human LS180 cells assessed as increase in mean fluorescence intensity at 1 mg/kg, iv measured at 24 hrs post administration by fluorescence-based imaging analysis; assay type: ADME, organism-based; conditions: in vivo
[25] = Drug uptake in tumor of nude BALB/c mouse xenografted with human LS180 cells assessed as increase in mean fluorescence intensity at 1 mg/kg, iv measured at 48 hrs post administration by fluorescence-based imaging analysis; assay type: ADME, organism-based, Neoplasm; conditions: in vivo
[26] = Drug uptake in human LS180 cells up to 1 uM after 24 hrs by fluorospectrometry; assay type: ADME, cell-based; conditions: ls180, 24 h
[27] = Drug uptake in tumor of nude BALB/c mouse xenografted with human LS180 cells assessed as increase in mean fluorescence intensity at 1 mg/kg, iv measured at 3 hrs post administration by fluorescence-based imaging analysis; assay type: ADME, organism-based, Neoplasm; conditions: in vivo
[28] = Drug uptake in human SW480 cells up to 1 uM after 24 hrs by fluorospectrometry; assay type: ADME, cell-based; conditions: sw480, 24 h
[29] = Drug uptake in tumor of nude BALB/c mouse xenografted with human LS180 cells at 1 mg/kg, iv measured after 4 days post administration by fluorescence-based imaging analysis; assay type: ADME, organism-based, Neoplasm; conditions: in vivo, 96 h
Mus musculus [30] = assay: Drug uptake in non-tumor tissue area of nude BALB/c mouse xenografted with human LS180 cells assessed as increase in mean fluorescence intensity at 1 mg/kg, iv measured at 24 hrs post administration by fluorescence-based imaging analysis; assay type: ADME, organism-based; conditions: in vivo
[31] = Drug uptake in tumor of nude BALB/c mouse xenografted with human LS180 cells assessed as mean fluorescence intensity at 1 mg/kg, iv measured at 72 hrs post administration by fluorescence-based imaging analysis; assay type: ADME, organism-based, Neoplasm; conditions: in vivo
[32] = Drug uptake in tumor of nude BALB/c mouse xenografted with human LS180 cells assessed as increase in mean fluorescence intensity at 1 mg/kg, iv measured at 6 hrs post administration by fluorescence-based imaging analysis; assay type: ADME, organism-based, Neoplasm; conditions: in vivo
Mus musculus [33] = assay: Drug uptake in non-tumor tissue area of nude BALB/c mouse xenografted with human LS180 cells assessed as increase in mean fluorescence intensity at 1 mg/kg, iv measured at 5 mins post administration by fluorescence-based imaging analysis; assay type: ADME, organism-based; conditions: in vivo

O=C(O)c1ccccc1-c1c2ccc(=O)cc-2oc2cc(O)ccc12
Drug uptake [1]: Not Active | Drug uptake [2]: Not Active | Drug uptake [3]: Not Active

CN(C)CCCNC(=O)CCNC(=O)c1cc(NC(=O)c2cc(NC(=O)CCNC(=O)c3cc(NC(=O)c4cc(NC(=O)c5cc(NC(=O)CCCNC(=O)c6cc(NC(=O)c7cc(NC(=O)c8cc(NC(=O)CCNC(=O)c9nc(NC(=O)c%10cc(NC(=O)CCNC(=S)Nc%11ccc(-c%12c%13ccc(=O)cc-%13oc%13cc(O)ccc%12%13)c(C(=O)O)c%11)cn%10C)cn9C)cn8C)cn7C)cn6C)cn5C)cn4C)cn3C)cn2C)cn1C
Drug uptake [4]: Active | Drug uptake [5]: Dose-dependent effect | Drug uptake [6]: Active | Drug uptake [7]: Active | Drug uptake [8]: Active | Drug uptake [9]: 50% | Drug uptake [10]: Active | Drug uptake [1]: Active | Retention_time [11]: 11.73 min | Drug uptake [12]: Active | Drug uptake [13]: Active | Drug uptake [14]: Not Active | Drug uptake [3]: Active | Drug uptake [15]: Active | Drug uptake [16]: Not Active | logP [17]: 1.5 | Drug uptake [18]: Active | Drug uptake [19]: Active | Drug uptake [20]: Dose-dependent effect | Drug uptake [21]: Active | Drug uptake [22]: Not Active | Drug uptake [23]: Active | Drug uptake [24]: Not Active

CN(C)CCCNC(=O)CCNC(=O)c1cc(NC(=O)c2cc(NC(=O)CCNC(=O)c3cc(NC(=O)c4cc(NC(=O)c5cc(NC(=O)CCCNC(=O)c6cc(NC(=O)c7cc(NC(=O)c8cc(NC(=O)CCNC(=O)c9nc(NC(=O)c%10nc(NC(=O)CCNC(=S)Nc%11ccc(-c%12c%13ccc(=O)cc-%13oc%13cc(O)ccc%12%13)c(C(=O)O)c%11)cn%10C)cn9C)cn8C)cn7C)cn6C)cn5C)cn4C)cn3C)cn2C)cn1C
Retention_time [11]: 11.4 min | logP [17]: 1.46

CN(C)CCCNC(=O)CCNC(=O)c1cc(NC(=O)c2cc(NC(=O)CCNC(=O)c3cc(NC(=O)c4cc(NC(=O)c5cc(NC(=O)CCCNC(=O)c6nc(NC(=O)c7nc(NC(=O)c8nc(NC(=O)CCNC(=O)c9nc(NC(=O)c%10nc(NC(=O)CCNC(=S)Nc%11ccc(-c%12c%13ccc(=O)cc-%13oc%13cc(O)ccc%12%13)c(C(=O)O)c%11)cn%10C)cn9C)cn8C)cn7C)cn6C)cn5C)cn4C)cn3C)cn2C)cn1C
Drug uptake [4]: Active | Drug uptake [6]: Active | Drug uptake [25]: Not Active | Drug uptake [7]: Not Active | Drug uptake [9]: 50% | Drug uptake [1]: Active | Retention_time [11]: 8.86 min | Drug uptake [13]: Active | Drug uptake [14]: Not Active | Drug uptake [3]: Active | Drug uptake [16]: Not Active | logP [17]: 1.19 | Drug uptake [18]: Not Active | Drug uptake [19]: Active | Drug uptake [26]: Active | Drug uptake [22]: Not Active | Drug uptake [23]: Active | Drug uptake [27]: Active | Drug uptake [24]: Not Active | Drug uptake [28]: Active | Drug uptake [29]: Not Active

CN(C)CCCNC(=O)CCNC(=O)c1cc(NC(=O)c2cc(NC(=O)CCNC(=O)c3cc(NC(=O)c4cc(NC(=O)c5cc(NC(=O)CCCNC(=O)c6cc(NC(=O)c7cc(NC(=O)c8nc(NC(=O)CCNC(=O)c9nc(NC(=O)c%10nc(NC(=O)CCNC(=S)Nc%11ccc(-c%12c%13ccc(=O)cc-%13oc%13cc(O)ccc%12%13)c(C(=O)O)c%11)cn%10C)cn9C)cn8C)cn7C)cn6C)cn5C)cn4C)cn3C)cn2C)cn1C
Drug uptake [4]: Active | Drug uptake [6]: Active | Drug uptake [7]: Not Active | Drug uptake [9]: 50% | Drug uptake [1]: Active | Drug uptake (Mus musculus [30]): Not Active | Retention_time [11]: 10.97 min | Drug uptake [13]: Active | Drug uptake [14]: Not Active | Drug uptake [31]: Active | Drug uptake [3]: Active | Drug uptake [15]: Not Active | Drug uptake [16]: Not Active | logP [17]: 1.42 | Drug uptake [32]: Active | Drug uptake [19]: Active | Drug uptake [26]: Active | Drug uptake [22]: Not Active | Drug uptake [23]: Active | Drug uptake (Mus musculus [33]): Active | Drug uptake [28]: Active

CN(C)CCCNC(=O)CCNC(=O)c1cc(NC(=O)c2cc(NC(=O)CCNC(=O)c3cc(NC(=O)c4cc(NC(=O)c5cc(NC(=O)CCCNC(=O)c6cc(NC(=O)c7nc(NC(=O)c8nc(NC(=O)CCNC(=O)c9nc(NC(=O)c%10nc(NC(=O)CCNC(=S)Nc%11ccc(-c%12c%13ccc(=O)cc-%13oc%13cc(O)ccc%12%13)c(C(=O)O)c%11)cn%10C)cn9C)cn8C)cn7C)cn6C)cn5C)cn4C)cn3C)cn2C)cn1C
Retention_time [11]: 10.48 min | logP [17]: 1.36
